How the values were obtained:
[1] = molecular target: T1, αvβ6 (Homo sapiens, UniProt P06756+P18564); assay: HT-29 cell adhesion assay for αvβ6 function; assay type: cell-based; conditions: HT-29 cells, adhesion to human LAP
T1 construct: HT-29 cells (American Type Culture Collection, Manassas, Va.), which naturally express αvβ6; endogenous in cells; host or cells: HT-29 (human colon adenocarcinoma, ATCC)
Method: HT-29 Cell Adhesion Assay for αvβ6 Function.
Purified human LAP protein (R&D Systems, Inc) diluted to 0.2 μg/ml in TS buffer (25 mM Tris 7.4, 150 mM NaCl) was added to wells (100 μl/well) of a 96-well microtiter plate (Immulon 2HB 96-well; VWR Scientific) and incubated overnight at 4° C. The solution in each well was then replaced with 200 μl of blocking buffer (TS with 1% bovine serum albumin), and the plate incubated for 1 hr at 37° C. Compounds were diluted in test tubes to 2× the peak testing concentration in cell adhesion buffer consisting of Hanks Buffered Salts Solution (HBSS, cation-free, Sigma), 0.1% bovine serum albumin, 25 mM HEPES, and 200 μM MnCl2. […] The cells were washed with the cell adhesion buffer, counted using a hemocytometer, centrifuged and resuspended in cell adhesion buffer at 4×10^6 cells/ml. […] Remaining attached cells were detected by addition of 100 μl/well p-nitrophenylphosphate (Sigma) solution (15 mg tablet dissolved in 25 ml 50 mM NaAcetate, pH5; 0.5% Triton-X-100), incubation for 30 min at 37° C., and then addition of 50 μl/well 1N NaOH to stop the enzyme reaction. Plates were read by colorimetric detection at 405 nm wavelength using a Tecan Safire II plate reader. Concentration-response curves were constructed by non-linear regression (best fit) analysis, and IC50 values were calculated for each compound. […]

[2] = system: TGFβ activation by recombinant human integrin αvβ6; assay: Integrin-mediated TGFβ activation assay (MLEC-PAI/L luciferase reporter co-cultured with SW480-β6 cells); assay type: cell-based; conditions: MLEC-PAI/L reporter cells co-cultured overnight with SW480-β6 cells
Method: Integrin-Mediated TGFβ Activation Assay.
Mink lung epithelial cells stably transfected with a luciferase reporter driven by a portion of the TGFβ-responsive Plasminogen Activator Inhibitor promoter (MLEC-PAI/L) were seeded at a density of 25,000/well in a white-walled, clear-bottom 96-well culture plate (Costar 3610) in 100 μL of assay medium (phenol red-free DMEM+10% fetal bovine serum). The cells were incubated for one hour in ambient air at room temperature, then at 37° C. for three hours in 5% CO2 to allow cell attachment. The medium was aspirated from the wells and 50 μL of compound diluted to 2× in assay medium was applied to each well, followed by 50 μL of assay medium containing 25,000 SW480-β6 cells, a cell line which stably overexpresses recombinant human integrin αvβ6. […] Following overnight co-culture incubation under standard conditions, the assay medium was aspirated from the wells, and a foil seal was applied to the bottom of the plate to prevent cross-detection of luminescence between the sample wells. […] The assay plate was then read immediately on a luminometer. Data was analyzed by first subtracting the mean substrate blank value from all samples, then dividing by the mean value of the MLEC-PAI/L baseline group to yield a “relative luciferase activity” value (RLA). […]

T1 sequence (P06756 31-889 limits assumed): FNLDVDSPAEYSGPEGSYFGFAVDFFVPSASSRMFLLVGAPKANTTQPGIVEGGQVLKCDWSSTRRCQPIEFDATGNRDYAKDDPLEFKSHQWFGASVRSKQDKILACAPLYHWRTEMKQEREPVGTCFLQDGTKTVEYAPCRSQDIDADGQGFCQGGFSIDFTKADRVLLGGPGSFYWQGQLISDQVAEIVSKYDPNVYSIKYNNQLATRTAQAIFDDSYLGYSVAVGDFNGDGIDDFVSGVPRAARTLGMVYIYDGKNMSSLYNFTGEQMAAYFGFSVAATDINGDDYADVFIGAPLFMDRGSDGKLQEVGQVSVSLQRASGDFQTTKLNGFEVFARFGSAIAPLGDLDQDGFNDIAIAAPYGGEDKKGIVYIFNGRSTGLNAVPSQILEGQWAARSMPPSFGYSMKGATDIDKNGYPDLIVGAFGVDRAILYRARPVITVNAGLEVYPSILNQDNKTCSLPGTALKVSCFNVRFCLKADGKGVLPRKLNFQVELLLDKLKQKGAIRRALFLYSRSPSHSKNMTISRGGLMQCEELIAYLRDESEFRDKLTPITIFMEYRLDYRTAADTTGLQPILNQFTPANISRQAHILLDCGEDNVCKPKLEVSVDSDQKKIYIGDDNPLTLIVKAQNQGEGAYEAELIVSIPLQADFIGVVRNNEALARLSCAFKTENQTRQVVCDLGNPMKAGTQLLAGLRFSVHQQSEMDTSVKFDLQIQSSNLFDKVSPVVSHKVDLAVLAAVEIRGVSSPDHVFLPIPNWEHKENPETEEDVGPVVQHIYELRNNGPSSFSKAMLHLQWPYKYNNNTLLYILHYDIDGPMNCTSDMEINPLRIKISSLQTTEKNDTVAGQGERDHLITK
T1 sequence (P06756 891-1048 partner limits assumed): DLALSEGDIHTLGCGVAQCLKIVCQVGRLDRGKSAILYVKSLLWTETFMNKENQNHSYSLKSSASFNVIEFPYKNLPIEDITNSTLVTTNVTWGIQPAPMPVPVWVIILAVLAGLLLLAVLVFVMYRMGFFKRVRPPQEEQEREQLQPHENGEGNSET
T1 sequence (P18564 22-788): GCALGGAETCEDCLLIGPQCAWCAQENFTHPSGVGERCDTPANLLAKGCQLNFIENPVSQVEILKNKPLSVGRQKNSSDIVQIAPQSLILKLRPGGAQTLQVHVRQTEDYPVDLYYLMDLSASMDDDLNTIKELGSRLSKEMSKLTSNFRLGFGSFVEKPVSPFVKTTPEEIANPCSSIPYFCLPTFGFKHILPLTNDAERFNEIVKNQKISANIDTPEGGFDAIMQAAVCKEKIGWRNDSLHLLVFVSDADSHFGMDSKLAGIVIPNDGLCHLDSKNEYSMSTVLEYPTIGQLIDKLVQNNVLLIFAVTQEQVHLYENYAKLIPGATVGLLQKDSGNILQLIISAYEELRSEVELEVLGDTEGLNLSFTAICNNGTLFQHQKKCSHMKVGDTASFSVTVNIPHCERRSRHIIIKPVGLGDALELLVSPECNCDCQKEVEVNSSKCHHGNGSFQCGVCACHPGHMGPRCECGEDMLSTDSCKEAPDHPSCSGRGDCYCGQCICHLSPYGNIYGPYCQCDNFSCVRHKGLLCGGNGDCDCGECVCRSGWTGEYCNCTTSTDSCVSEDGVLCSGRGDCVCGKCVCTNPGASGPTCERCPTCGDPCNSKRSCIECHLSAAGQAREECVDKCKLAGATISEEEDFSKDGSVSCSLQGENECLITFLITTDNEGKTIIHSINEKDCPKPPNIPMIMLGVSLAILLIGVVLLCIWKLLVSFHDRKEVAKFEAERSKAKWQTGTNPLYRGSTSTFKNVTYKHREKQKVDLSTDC

CC(C)(C)c1cc(Br)cc([C@H](CC(=O)O)NC(=O)CNC(=O)c2cc(O)cc(NC3=NCC(O)CN3)c2)c1 (stereo partly drawn) [Example 1, (3S)—N-[3-hydroxy-5-[(1,4,5,6-tetrahydro-5-hydroxy-2-pyrimidinyl)amino]benzoyl]glycyl-3-(3-bromo-5-tert-butylphenyl)-β-alanine]
IC50 [1]: 1.5 nM | IC50 [2]: 564 nM

Source: patent publication US8716226B2, “3,5 phenyl-substituted beta amino acid derivatives as integrin antagonists” (Saint Louis University, priority 2012, dated 2014)
